From ChEMBL document CHEMBL6177919, “Development, biological evaluation, and molecular modelling of some benzene-sulfonamide derivatives as protein tyrosine phosphatase-1B inhibitors for managing diabetes mellitus and associated metabolic disorders” (RSC Med Chem, 2025)

Target: T1, Tyrosine-protein phosphatase non-receptor type 1 (Homo sapiens, UniProt P18031)
T1 sequence (P18031 whole entry): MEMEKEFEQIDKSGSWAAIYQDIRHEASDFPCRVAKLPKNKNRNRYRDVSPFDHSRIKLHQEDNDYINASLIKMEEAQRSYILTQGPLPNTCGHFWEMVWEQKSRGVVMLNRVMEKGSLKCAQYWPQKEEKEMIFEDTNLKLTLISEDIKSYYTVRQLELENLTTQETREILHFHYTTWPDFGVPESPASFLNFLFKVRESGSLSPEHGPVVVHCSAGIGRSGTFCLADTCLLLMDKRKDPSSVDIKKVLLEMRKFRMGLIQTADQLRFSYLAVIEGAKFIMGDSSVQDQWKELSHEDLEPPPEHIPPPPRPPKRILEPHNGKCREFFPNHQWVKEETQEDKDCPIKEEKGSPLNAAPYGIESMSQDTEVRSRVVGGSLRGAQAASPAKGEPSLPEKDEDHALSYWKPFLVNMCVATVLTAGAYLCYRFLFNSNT
Description: Inhibition of PTP1B (unknown origin)

| IC50 | Compound |
| --- | --- |
| 1300 nM | O=C(O)c1ccc(CN2C(=O)S/C(=C\c3ccc(OCc4ccccc4)cc3)C2=O)cc1 |

Target: T1, Tyrosine-protein phosphatase non-receptor type 1
Remark: another data set of the same source
Description: Inhibition of C-terminal PTP1B (unknown origin)

| Compound | IC50 |
| --- | --- |
| COC(=O)CC[C@@H](C)[C@H]1CC[C@H]2[C@@H]3[C@H](O)C[C@H]4C[C@H](NCCCCNCc5ccccn5)CC[C@]4(C)[C@H]3CC[C@]12C | 100 nM |

Target: T1, Tyrosine-protein phosphatase non-receptor type 1
Remark: another data set of the same source
Description: Inhibition of human recombinant PTP1B incubated for 15 mins by fluorometric assay

| IC50 | Compound |
| --- | --- |
| 14000 nM | O=C1CS/C(=N\c2ccccc2)N1c1ccc(S(=O)(=O)Nc2ncccn2)cc1 |
| 830 nM | CC(=O)C1=CC(=O)N(c2ccc(S(=O)(=O)Nc3ncccn3)cc2)C1=O |
| 710 nM | CCN1C(=O)C(C)S/C1=N\c1ccc(S(=O)(=O)Nc2ncccn2)cc1 (stereo not given) |
| 570 nM | CN1CCN(CC(=O)Nc2ccc(S(=O)(=O)Nc3ncccn3)cc2)CC1 |
| 720 nM | N#CC1=CC(=O)N(c2ccc(S(=O)(=O)Nc3ncccn3)cc2)C1=O |
| 16600 nM | CC/N=C1\SCC(=O)N1c1ccc(S(=O)(=O)Nc2ncccn2)cc1 |
| 3670 nM | O=C(CN1CCN(c2ccccc2)CC1)Nc1ccc(S(=O)(=O)Nc2ncccn2)cc1 |
| 1890 nM | CC1S/C(=N\c2ccc(S(=O)(=O)Nc3ncccn3)cc2)N(c2ccccc2)C1=O (stereo not given) |
| 620 nM | CCN1C(=O)CS/C1=N\c1ccc(S(=O)(=O)Nc2ncccn2)cc1 |
| 1950 nM | CC1O/C(=N\c2ccc(S(=O)(=O)Nc3ncccn3)cc2)N(c2ccccc2)C1=O (stereo not given) |
| 8970 nM | N=C1SCC(=O)N1c1ccc(S(=O)(=O)Nc2ncccn2)cc1 |
| 680 nM | O=S(=O)(Nc1ncccn1)c1ccc(NCc2nc3ccccc3[nH]2)cc1 |
| 650 nM | CCc1ccc(CCOc2ccc(CC3SC(=O)NC3=O)cc2)nc1 (stereo not given) [PIOGLITAZONE] |
